Columns and labels:
Wee1 kinase = target: T1, Wee1 kinase (Homo sapiens, UniProt P30291); assay: Wee1 kinase inhibitory effect (Pharmacological Test 1); assay type: biochemical; settings: GST-tagged Wee1 kinase, Poly(Lys, Tyr) substrate, 10 μM ATP, 30° C. for 30 minutes
T1 construct: made in house; host or cells: Sf9 insect cells (recombinant baculovirus)
From the text: Pharmacological Test 1 (Wee1 Kinase Inhibitory Effect)
(1) Purification of Wee1 Kinase
A cDNA of Wee1 kinase with […] (GST) fused at the amino terminal thereof was inserted into a baculovirus expression vector to construct a recombinant baculovirus, with which cells of an insect cell line Sf9 were infected to overexpress the target protein. The infected cells were collected and lysed, and then the GST-tagged Wee1 kinase protein was adsorbed to a glutathione column and eluted from the column with glutathione, and the active fraction was desalted in a desalting column to give a purified enzyme.
(2) Measurement of Wee1 Kinase Activity
In measurement of the Wee1 kinase activity, a synthetic peptide, Poly(Lys, Tyr) hydrobromide (Lys:Tyr (4:1)) purchased from Sigma was used as the substrate.
The amount of the reaction mixture was 21.1 μL; and the composition of the reaction buffer was 50 mM Tris-HCl buffer (pH 7.4)/10 mM magnesium chloride/1 mM dithiothreitol. The purified Wee1 kinase, 2.5 μg of the substrate peptide, 10 μM of non-labeled adenosine triphosphate (ATP) and 1 μCi of [γ-^33P]-labeled ATP (2500 Ci/mmol or more) were added to the reaction buffer, and the resulting mixture was incubated at 30° C. for 30 minutes. Thereafter, 10 μL of 350 mM phosphate buffer was added to the reaction system to stop the reaction. The substrate peptide was adsorbed on a P81 paper filter 96-well plate and the plate was washed several times with 130 mM phosphate buffer, and the radioactivity thereof was counted using a liquid scintillation counter. The [γ-^33P]-labeled ATP was purchased from Amersham Bioscience, Ltd.
The addition of a test compound to the reaction system was carried out by preparing a series of dilutions of the compound with dimethyl sulfoxide (DMSO) and adding 1.1 μL of each dilution to the reaction system. As a control, 1.1 μL of DMSO was added to the reaction system.

[1] = system: Cdc2 (Cdk1) tyrosine-15 phosphorylation; assay: Inhibitory effect on Cdc2 (Cdk1) tyrosine-15 phosphorylation in NCI-H1299 cells (Pharmacological Test 2); assay type: cell-based; settings: Homo sapiens, camptothecin 200 nM 16 hours, then test compound with nocodazole 8 hours, ELISA, read-out: Cdc2-Y15 Phosphorylation-Inhibitory Effect (H1299, +camptothecin) (EC50)
From the text: Pharmacological Test 2 (Method for Determining Drug Effect Using Cells (Inhibitory Effect on Cdc2 (Cdk1) Tyrosine-15 Phosphorylation))
Fetal bovine serum (FBS) was purchased from Morgate, Inc.; an RPMI-1640 medium and a DMEM medium were purchased from Invitrogen, Inc.; camptothecin was purchased from Sigma Co.; gemcitabine was purchased from Eli Lilly Japan K.K.; nocodazole and protease inhibitor cocktail were purchased from Sigma Co.; a rabbit anti-Cdc2 antibody and a mouse anti-Cdc2 antibody were purchased from Santa Cruz Biotechnology, Inc.; a rabbit anti-tyrosine-15-phosphorylated Cdc2 antibody and a horseradish peroxidase-labeled anti-mouse IgG antibody were purchased from Cell Signaling Technology, Inc.; and Sure Blue Reserve TMB peroxidase substrate was purchased from Kirkegaard & Perry Laboratories, Inc.
A human non-small cell lung cancer cell line (NCI-H1299) and a human colon cancer cell line (WiDr) can be obtained from American Type Culture Collection (ATCC).
In the method using NCI-H1299 cells, the cells were suspended in an RPMI-1640 medium supplemented with 10% FBS, and 100 μL of the resulting cell suspension was dispensed in a Nunclon Delta treated 96-well plastic plate purchased from Nunc, Inc. at a density of 2000 cells per well, and the plate was incubated overnight at 37° C. under an atmosphere of 5% CO2 and 95% air. Camptothecin was dissolved in dimethyl sulfoxide (DMSO) and further the resulting solution was diluted with an RPMI-1640 medium supplemented with 10% FBS. Then, 50 μL of the diluted solution was added to each well of the plate in which the cells were seeded in advance such that the final concentration of camptothecin was 200 nM, and the plate was incubated at 37° C. under an atmosphere of 5% CO2 and 95% air for 16 hours. A test compound was serially diluted with DMSO, and further diluted with an RPMI-1640 medium supplemented with 10% FBS containing 4000 nM nocodazole. Then, 50 μL of the test compound solution was added to each well of the plate in which the cells treated with camptothecin were seeded, and the plate was incubated at 37° C. under an atmosphere of 5% CO2 and 95% air for 8 hours. Then, the culture medium was removed from each well and 100 μL of a cell lysis buffer was added to each well, and the plate was shaken at 4° C. for 2 hours, and thereafter the liquid in the plate was frozen at −80° C. and then thawed, which was used as a lysed cell solution. Cdc2 and tyrosine-15-phosphorylated Cdc2 in this lysed cell solution were measured by an enzyme-linked immunosorbent assay (ELISA method), and a ratio of tyrosine-15-phosphorylated Cdc2 to Cdc2 was calculated to determine a 50% effective concentration (EC50, nM) of the test compound for inhibition of phosphorylation in cells. The cell lysis buffer as used herein is an aqueous solution containing 20 mM HEPES (pH 7.5), 150 mM sodium chloride, 1 mM disodium ethylenediamine tetraacetate, 0.1% polyoxyethylene (10) octylphenyl ether, 1% protease inhibitor cocktail, 1 mM dithiothreitol, 2 mM sodium orthovanadate, 10 mM sodium fluoride and 10 mM glycerol diphosphate. The measurement of Cdc2 by the ELISA method was carried out as follows. 50 μL of a solution of a rabbit anti-Cdc2 antibody obtained by diluting the antibody to 200 times with 50 mM carbonate-bicarbonate buffer (pH 9.6) was dispensed into each well of a 96-well Maxisorb immunoplate purchased from Nunc, Inc., and the immunoplate was let stand overnight at 4° C. to immobilize the antibody thereto. Subsequently, each well was washed three times with phosphate buffered saline (PBS), and 300 μL of PBS containing 5% bovine serum albumin (5% BSA/PBS) was added to each well, and then, the immunoplate was let stand at room temperature for 2 hours. […]

T1 sequence (P30291 whole entry): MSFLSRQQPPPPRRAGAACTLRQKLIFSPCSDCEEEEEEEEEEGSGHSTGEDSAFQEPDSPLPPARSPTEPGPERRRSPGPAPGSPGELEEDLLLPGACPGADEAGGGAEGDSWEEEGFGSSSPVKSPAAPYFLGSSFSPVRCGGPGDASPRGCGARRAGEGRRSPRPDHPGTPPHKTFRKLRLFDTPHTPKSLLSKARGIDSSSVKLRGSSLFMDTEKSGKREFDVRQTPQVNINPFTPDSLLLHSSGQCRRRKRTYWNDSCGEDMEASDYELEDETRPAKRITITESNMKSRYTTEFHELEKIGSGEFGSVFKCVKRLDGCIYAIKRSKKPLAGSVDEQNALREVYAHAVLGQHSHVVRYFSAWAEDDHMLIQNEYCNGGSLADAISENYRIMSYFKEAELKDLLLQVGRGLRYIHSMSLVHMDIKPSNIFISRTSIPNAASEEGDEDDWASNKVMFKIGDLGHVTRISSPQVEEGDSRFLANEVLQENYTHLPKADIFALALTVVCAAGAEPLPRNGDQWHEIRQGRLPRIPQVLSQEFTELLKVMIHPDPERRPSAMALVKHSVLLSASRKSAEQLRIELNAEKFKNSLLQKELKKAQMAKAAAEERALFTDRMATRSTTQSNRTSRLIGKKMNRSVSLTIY

Compound | IC50 (Wee1 kinase) [nM] | EC50 [1] [nM]
CN1CCc2cc(Nc3ncc4c(=O)n5c(nc4n3)c3ccccc3n5-c3ncccn3)ccc2C1(C)C [Example 103, 7-(pyrimidin-2-yl)-2-[(1,1,2-trimethyl-1,2,3,4-tetrahydroisoquinolin-6-yl)amino]pyrimido[4′,5′:4,5]pyrimido[1,2-b]indazol-5(7H)-one] | 6.8 | 31
Cc1cc(Nc2ncc3c(=O)n4c(nc3n2)c2ccccc2n4-c2ncccn2)ccc1N1CCN(C)CC1 [Example 61, 2-{[3-methyl-4-(4-methylpiperazin-1-yl)phenyl]amino}-7-(pyrimidin-2-yl)pyrimido[4′,5′:4,5]pyrimido[1,2-b]indazol-5(7H)-one] | 12 | 130

Results, then the compound that gave them:

IC50 (Wee1 kinase) [nM] | EC50 [1] [nM] | Compound
5.8 | 170 | CN1CCN(c2ccc(Nc3ncc4c(=O)n5c(nc4n3)c3ccccc3n5-c3ccoc3)cc2)CC1 [Example 147, 7-(furan-3-yl)-2-{[4-(4-methylpiperazin-1-yl)phenyl]amino}pyrimido[4′,5′:4,5]pyrimido[1,2-b]indazol-5(7H)-one]
30 | 250 | Cc1cc(Nc2ncc3c(=O)n4c(nc3n2)c2ccccc2n4-c2ncccn2)ccc1OCCN(C)C [Example 90, 2-({4-[2-(dimethylamino)ethoxy]-3-methylphenyl}amino)-7-(pyrimidin-2-yl)pyrimido[4′,5′:4,5]pyrimido[1,2-b]indazol-5(7H)-one]
15 | 190 | CN(C)CCN1CCc2cc(Nc3ncc4c(=O)n5c(nc4n3)c3ccccc3n5-c3nccs3)ccc21 [Example 144, 2-({1-[2-(dimethylamino)ethyl]-2,3-dihydro-1H-indol-5-yl}amino)-7-(1,3-thiazol-2-yl)pyrimido[4′,5′:4,5]pyrimido[1,2-b]indazol-5(7H)-one]
